Experimental data reported in publication PMC10878790 (The Journal of Biological Chemistry, 2024).
Entries after “also recorded” stand apart in the source; their conditions may differ. Square brackets hold non-standard residues; d marks the D form. Peptide text beside a SMILES is read from it.

Legend:
DU-145 = type: cell-based; conditions: MTT, 48 hours
Experimental: (§1) MDA-MB-231, MCF-7, DU-145, PC-3, and NIH-3T3 cell lines were procured from the American Type Culture Collection and used within ten consecutive passages to ensure consistent cell behavior. MDA-MB-231, MCF-7, and NIH-3T3 cells were maintained at 37 °C and 5% CO2 in Dulbecco's modified Eagle's medium (DMEM) high glucose (Hyclone) supplemented with 10% fetal bovine serum (FBS) and 1% Antibiotic-Antimycotic (Gibco), while DU-145 and PC-3 cells were grown in RPMI-1640 supplemented with the same concentration of FBS and Antibiotic-Antimycotic. The media was replenished every 2 days. Cells were checked for mycoplasma at regular intervals using a PCR-based Mycoplasma detection kit plasmocin prophylactic (InvivoGen). In all experiments, cells were maintained in serum-free DMEM for 6 h before peptide treatment. Peptide treatment was done in the media containing 0.1% fetal bovine serum for 48 h in all the experiments unless otherwise stated.
(§2) Cell viability was determined by 3-[4,5-dimethylthiazol-2-yl]-2,5 diphenyl tetrazolium bromide (MTT) assay as described earlier ([52]). ProTox-II "Prediction of Toxicity of Chemicals" web server was used for toxicology assessment ([19]). See the Supporting Information for full experimental details.
(§3) Full Experimental Method for Cell Viability Assay:
(§4) Cell viability of murine NIH- 3T3 cells, as well as MDA- MB -231 , MC F-7, PC- 3, and DU-145 cells, wa s assessed through the MT T assay as described previously(1). Approximately
(§5) 5000 cells per well were seeded in a 96-well plate and allowed to incubate overnight for attachment. Following attachment, the growth medium was replaced wit h a fresh medium
(§6) containing serial dilutions of peptides. The cells we re then incubated for 48 hours in a 5% CO2 incubator . After incubation, 10 μl of a 5 mg/mL MT T solution was introduced to each
(§7) well and left to incubate for an additional 2 hours . Subsequently, the entire medium, along wit h the MT T solution, was aspirated, and the remaining formazan crystals were dissolved
(§8) in 200 μl of DMSO. The absorbance was measured at 595 nm using a Biotek Synergy 2 Plate Reader. […]
(§9) ProTox-II "Prediction of Toxicity of Chemicals" we b server was used for toxicology assessment. […]

MCF-7 = type: cell-based; conditions: MTT, 48 hours
Experimental: as §1, §2, §3, §4, §5, §6, §7, §8, §9

MDA-MB-231 = type: cell-based; conditions: MTT, 48 hours
Experimental: as §1, §2, §3, §4, §5, §6, §7, §8, §9

PC-3 = type: cell-based; conditions: MTT, 48 hours
Experimental: as §1, §2, §3, §4, §5, §6, §7, §8, §9

NIH-3T3 = type: cell-based, murine; conditions: MTT, 48 hours; normal cells
Experimental: as §1, §2, §3, §4, §5, §6, §7, §8, §9

[1] = Mouse liver microsome stability; conditions: for half-life at 2 μM / remaining at 2 h, 2 μM: male; for half-life at 2 μM: ICR/CD-1, mouse; for remaining at 2 h, 2 μM: Institute of Cancer Research/CD-1, mouse
Experimental: An NADPH-regenerating system (1.7 mg/ml NADP, 7.8 mg/ml glucose-6-phosphate, 6 U/ml glucose-6-phosphate dehydrogenase in 2% w/v NaHCO3/10 mm MgCl2) was added for analysis of Phase I metabolism after heating both the regenerating solution and the sample tubes to 37 °C for 5 min in a 37 °C shaking water bath. The incubation was continued and at varying time points after addition of phase I cofactors, the reaction was stopped by the addition of 0.5 ml of acetonitrile containing IS and formic acid such that the final concentration of IS was 100 ng/ml and acid was 0.1%. Time 0 samples were stopped with the acetonitrile solution while still on ice prior to addition of the NADPH regenerating system and compound, which were subsequently added. The samples were incubated for 10 min at room temperature and then spun at 16,100g for 5 min in a microcentrifuge at 4 °C. The supernatant was analyzed by LC-MS/MS. The method described by McNaney et al. was used with modification for determination of metabolic stability half-life by substrate depletion ([59]). A “% remaining” value was used to assess the metabolic stability of a compound over time. The LC-MS/MS peak area of the incubated sample at each time point was divided by the LC-MS/MS peak area of the time 0 (T0) sample and multiplied by 100. The natural Log (LN) of the % remaining of compound was then plotted versus time (in min) and a linear regression curve was plotted going through y-intercept at LN (100).

[2] = In vivo toxicity of peptides alone; design: species or system athymic nude mice; conditions: for body weight / signs of distress / survival: 90 mg/Kg ip on day 5, day 10 and day 15; for survival: after 30 days; for signs of toxicity: three ip doses of 90 mg/Kg, 90 mg/kg
Experimental: MDA-MB-231 cells were implanted orthotopically into the second thoracic mammary fat pad of nude mice (n = 5). […] The control mice received vehicle only. B, at the end of the experiments, representative tumors were removed and photographed. […] The tumor sizes were measured by a digital caliper and shown as mean volume ± SDs every alternate day for 30 days. […] The statistical analysis was performed on GraphPad Prism 9.4.0. […] E–H, Western blots of cell lysates prepared from the tumors of untreated tumor (Vehicle) versus LA3IK and RP-7 for apoptosis-associated proteins. Number of tumors taken for study = 4 per group. Densitometry was determined and normalized to β-actin. Bar graphs are densitometric data (means ± SD). Data analyzed by one-way ANOVA. ∗p < 0.05,∗∗p <0.01 and ∗∗∗p < 0.001. Full-length representative blots are in Figure S8(2). […] The mice were monitored for changes in body weights as a surrogate marker for toxicity.
Cleaved caspase-3 plays a pivotal role in transmitting apoptotic signals through its enzymatic actions on downstream targets, including PARP and other substrates. PARP, which is an ADP-ribosylating enzyme, is essential for initiating various types of DNA repair processes ([29]). However, when it is cleaved by activated caspase-3, PARP loses its functionality, leading to the suppression of DNA repair mechanisms. This, in turn, may promote cell death through both caspase-dependent and caspase-independent pathways of apoptosis ([30]).

MDA-MB-231 cells [3] = assay: Western blot of MIEN1 signaling pathway proteins; type: cell-based; conditions: mean values of immunoblot densitometry
Experimental: Cells were exposed to the peptides and subjected to Western blot analysis with the indicated antibodies. […] Cytoplasmic and nuclear cell lysate extracts of EGF only and EGF plus peptide-treated cells were probed for p65 and p50. Lamin A/C and β-actin were used as nuclear and cytoplasmic loading control respectively. Densitometry was determined with immunoblots (N = 3) and normalized to total protein or β-actin for whole cell lysates and cytoplasmic fraction of peptide-treated MDA-MB-231 cells. In case of nuclear lysates, the immunoblots were normalized with Lamin A/C. Bar graphs are densitometric data (means ± SD). […] EGF concentration: (10 ng/ml); Peptide concentration: 90 μM. EGF, epidermal growth factor; MIEN1, migration and invasion enhancer 1; NF-κB, nuclear factor kappa B.
Western blot analysis was performed according to standard protocols to assess the effects of MIEN1-derived peptides and their analogs on MDA-MB-231 cells and DU-145 cells. Cell lysates were prepared using radioimmunoprecipitation assay buffer and quantified for protein content by bicinchoninic acid method. […] Protein blocking with 5% bovine serum albumin was followed by incubation with primary antibodies specific to various proteins at 4 °C for 8 to 10 h. The membrane was then washed three times in Tris Buffered Saline with Tween 20 and incubated with the appropriate secondary antibody. Protein bands were visualized using the Alpha Innotech chemiluminescent detection system. In case of MDA-MB-231 cells, cytoplasmic and nuclear extracts were isolated to investigate the effects of peptides and/or EGF stimulation. Prior to exposure to the cells, the test peptides (90 μM) were incubated with EGF (10 ng/ml) in media at 4 °C for 15 min. The untreated MDA-MB-231 cells received EGF alone at the same concentration. The isolation of cytoplasmic and nuclear fractions was performed using the Subcellular Protein Fractionation Kit for Cultured Cells from Thermo Fisher Scientific (cat #78840) following the manufacturer's guidelines. For Western blot experiments, 20 μg of purified cytoplasmic and nuclear fraction was used.
Densitometry analysis of Western blot data was conducted using the AlphaView-FluorChem HD2 software of the Alpha Innotech chemiluminescent detection system (https://www.cambridgescientific.com/product/alpha-innotech-fluorchem-hd2-gel-imaging-system). To quantify band intensities, a uniform rectangle was drawn around each band, and background subtraction was applied to determine the total pixel density for each lane. Further calculations, including the determination of the ratio of phosphorylated proteins to total proteins or other loading controls, were carried out using Microsoft Excel. […]

[4] = Pharmacokinetic studies in CD1 mice; conditions: in vivo, iv, 5 mg/kg
MDA-MB-231 cells [5] = assay: Wound healing assay; type: cell-based; conditions: equimolar peptide concentrations; compared to untreated cells
Experimental: (§10) The wound healing assay was performed using two breast cancer cell lines, MDA-MB-231 and MCF-7, and two prostate cancer cell lines, PC-3 and DU-145, to evaluate the antimigratory capacity of the peptides. […] The cells were grown to approximately 80% confluency in 12-well tissue culture plates, and a cell-free area was created by scraping the monolayer. The peptides were added, and the cells were incubated at 37 °C with 5% CO2 for 24 h. Wound closure was assessed by imaging the wounds at 0 and 24 h, and the wound areas were quantified using ImageJ software (https://imagej.net/ij/). In the transwell invasion assay, MDA-MB-231 cells were serum starved for 4 h followed by a pretreatment with increasing concentrations of each peptide in a 0.1% serum-containing DMEM for 24 h. The cells were then trypsinized, resuspended in same media for the second treatment of peptides, and counted. Next, 40,000 cells were resuspended in 0.1% serum containing DMEM and added to the upper chamber of Transwell plates (Corning Life Sciences) with a polyethylene terephthalate membrane (6.4 mm diameter, 8 μm pore size). The bottom chambers were filled with DMEM containing 10% FBS as a chemoattractant. The transwell plates were incubated at 37 °C with 5% CO2 for 24 h to allow the invasion of cells through the membrane. The invaded cells on the lower side of the membrane were fixed with 4% paraformaldehyde for 15 min, followed by a PBS wash. The membrane inserts were further fixed with ice-cold methanol for 20 min and stained with 0.25% (w/v) crystal violet. After incubation, the noninvasive cells on the upper surface of the membrane were gently removed using a cotton swab. Random fields were chosen for imaging, and the number of invaded cells was counted using ImageJ software. The results were expressed as the average number of invaded cells compared with the control.

MDA-MB-231 cells [6] = assay: Transwell invasion assay; type: cell-based; conditions: 24 h
Experimental: as §10

Ac-RPPCVIL-NH2 [RP-7]
IC50 (DU-145): 121 ± 7.08 µM
IC50 (MCF-7): 110 ± 4.23 µM
IC50 (MDA-MB-231): 139 ± 8.41 µM
IC50 (PC-3): 113 ± 8.02 µM
IC50 (NIH-3T3): 221 ± 6.23 µM
half-life at 2 μM ([1]; microsomes, pH 7.5, Mouse Liver Microsome T1/2, 2 μM peptide): 0.872 h
half-life at 2 μM ([1]; microsomes, pH 7.5, Mouse Liver Microsome T ½ (h), 2 μM peptide, 0.5 mg/ml microsome protein, NADPH-regenerating system): 0.87 h
remaining at 2 h, 2 μM ([1]; microsomes, pH 7.5): 17.7%
body weight / signs of distress [2]: No body weight loss or other signs of distress
survival [2]: All mice (N = 3) were alive
signs of toxicity [2]: did not display any signs of toxicity; also recorded: no significant toxicity

CC[C@H](C)[C@H](NC(=O)[C@H](C)NC(=O)[C@H](CC(C)C)NC(C)=O)C(=O)N[C@@H](C)C(=O)N[C@H](C(=O)N[C@@H](CCCCN)C(N)=O)C(C)C [LA3IK, LAIAVK]
half-life at 2 μM ([1]; liver microsomes, pH 7.5): > 2 h
remaining at 2 h, 2 μM ([1]; liver microsomes, pH 7.5): 83.7%
body weight / signs of distress [2]: No body weight loss or other signs of distress
survival [2]: All mice (N = 3) were alive
signs of toxicity [2]: did not display any signs of toxicity; also recorded: no significant toxicity

CC[C@@H](C)[C@@H](NC(=O)[C@H](NC(=O)[C@@H](CS)NC(=O)[C@H]1CCCN1C(=O)[C@H]1CCCN1C(=O)[C@@H](CCCNC(=N)N)NC(C)=O)C(C)C)C(=O)N[C@H](CC(C)C)C(N)=O [D-RP-7] (Ac-[dR][dP][dP][dC][dV][dI][dL]-NH2)
IC50 (DU-145): 122 ± 6.56 µM
IC50 (MCF-7): 90 ± 10.3 µM
IC50 (MDA-MB-231): 95 ± 7.71 µM
IC50 (PC-3): 101 ± 5.73 µM
IC50 (NIH-3T3): 210 ± 8.41 µM
greater inhibition of FAK phosphorylation than L-peptide counterpart (MDA-MB-231 cells [3]): 24.2%
greater inhibition of SRC phosphorylation than L-peptide counterpart (MDA-MB-231 cells [3]): 29.5%
remaining at 2 h, 2 μM ([1]; microsomes, pH 7.5): 64.4%
half-life ([1]; mouse, microsomes, Mouse Liver Microsome T ½ (h), 2 μM peptide, 0.5 mg/ml microsome protein, NADPH-regenerating system): > 2 h
MRT ([4]; female, CD1, mouse): 5.7 h
Tmax ([4]; female, CD1, mouse): 4.8 min
Vd ([4]; female, CD1, mouse): 1700 L/kg
Cmax ([4]; mouse): 0.048 µg/mL
Vd ([4]; mouse): 1310 L/kg
clearance ([4]; mouse): 84.9 L/h/kg
half-life ([4]; mouse): 13.8 h

CC[C@H](C)[C@H](NC(=O)[C@@H](NC(=O)[C@H](CS)NC(=O)[C@@H]1CCCN1C(=O)[C@@H]1CCCN1C(=O)[C@H](CCCNC(=N)N)NC(=O)[C@H](CS)NC(C)=O)C(C)C)C(=O)N[C@@H](CC(C)C)C(N)=O [CR-8] (Ac-CRPPCVIL-NH2)
inhibition of migration (MDA-MB-231 cells [5]): limited inhibition
number of invaded MDA-MB-231 cells / inhibition of invasion (MDA-MB-231 cells [6]): limited inhibition
